Reference: patent US9034403B2, “Yeast extract containing γ-Glu-X or γ-Glu-X-Gly and a method for producing the same” (AJINOMOTO CO., INC., priority 2010, dated 2015)
Peptide text beside a SMILES is read from it.

Columns and labels:
[1] = test system: S288C, S288C PADH1-HGT1, S288C PADH1-PTR2; experiment: γ-Glu-Val-Gly producing ability from Val-Gly of Hgt1p or Ptr2p overproducing strains; assay type: cell-based, Saccharomyces cerevisiae; conditions: 100 ppm Val-Gly in SD medium, 20 hours
Experimental: S288C PADH1-HGT1, Hgt1p overproducing strain obtained in Example 12, S288C PADH1-PTR2, Ptr2p overproducing strain obtained in Example 12, and their parental strain S288C were evaluated for their γ-Glu-Val-Gly producing abilities from Val-Gly. Each strain was cultivated in 50-ml tubes containing 10 ml of SD medium with 100 ppm Val-Gly as a final concentration. Tubes were inoculated by overnight culture of corresponding strain at initial OD600=0.01, and placed in rotation shaker at 240 rpm, 30° C. Cultivation time was for 20 hours. Then, cells from 2 ml of broth culture were harvested by centrifugation, and washed with 1 ml of milliQ water three times. Then, washed cells were suspended in 1 ml of milliQ and incubated at 70° C. for 10 min with a water bath to extract intracellular materials. After cell debris and the extract were separated by centrifugation, the aqueous phase was transferred to a clean vial and then the vial was vacuum-dried. Thus, the dried extract was prepared. Then γ-Glu-Val-Gly in the dried extract was measured with LC-MS/MS analysis as described in Example 12.

[2] = test system: Saccharomyces cerevisiae S288C strain; experiment: Addition of Val-Gly to the S288C strain in SDP medium, γ-Glu-Val-Gly in dry cells; assay type: cell-based; conditions: Val-Gly 100 ppm added to SDP medium in advance, culture 24 hours
Experimental: One loop of the S288C strain was inoculated into SDP medium (ammonium sulfate used for the preparation of the SD medium was replaced with proline, final concentration of proline was 0.1 g/L, 50 ml in a 500 ml-volume Sakaguchi flask), and cultured at 30° C. for 24 hours with shaking at a velocity of 120 rpm. Absorbance of the resulting culture broth was measured, the culture broth was inoculated into SDP medium (400 ml in a 2 L-volume conical flask with baffle fins, two or more flasks) so that OD660 was 0.01 at the start of the culture, and culture was performed at 30° C. for 24 hours with shaking by rotation at a velocity of 120 rpm. To the SDP medium, Val-Gly (purchased from Bachem) was added in advance to a final concentration of 100 ppm. Using the culture broth, the amount of γ-Glu-Val-Gly in dry cells was calculated in the same manner as that of Example 2.

## CC(C)[C@H](N)C(=O)NCC(=O)O [Val-Gly] (H-Val-Gly-OH)
[1]; strain S288C PADH1-HGT1
  γ-Glu-Val-Gly in the dried extract: 0.03 μg 1^−1 OD600^−1
[1]; strain S288C PADH1-PTR2
  γ-Glu-Val-Gly in the dried extract: 8.89 μg 1^−1 OD600^−1
[1]; strain S288C
  γ-Glu-Val-Gly in the dried extract: 0.04 μg 1^−1 OD600^−1
[2]
  γ-Glu-Val-Gly in dry cells: 2 ppm
